Like-named read-outs stand apart in the source and are kept apart here.
Target: T1, human CB2R (Homo sapiens, UniProt P34972)
T1 construct: host or cells: CHO cells
Test: CB2R mediated modulation of cAMP synthesis (forskolin-stimulated cAMP, CHO cells expressing human CB2R)
Format: cell-based
Protocol: B. CB2R Mediated Modulation of cAMP Synthesis:
Compounds of the invention were evaluated for their CB2 agonist or inverse agonistic activity in accordance with the following experimental method.
CHO cells expressing human CB2R (Euroscreen) were plated at a density of 5000 cells per well in 384 well plates and incubated overnight at 37° C. After removing the media, the cells were treated with test compounds diluted in stimulation buffer containing 1 mM IBMX, 0.25% BSA and 10 uM Forskolin. The assay was incubated for 30 minutes at 37° C. Cells were lysed and the cAMP concentration was measured using DiscoverX-XS cAMP kit, following the manufacturer's protocol. In this setting, agonists will decrease forskolin induced production of cAMP while inverse agonists will further increase forskolin induced production of cAMP. EC50 of agonists were calculated as follows. The maximal amount of cAMP produced by forskolin compared to the level of cAMP inhibited by 1 uM CP55940 is defined as 100%. […] Data was analyzed using a four-parameter logistic model. (Model 205 of XLfit 4.0).

[1] = agonist EC50, inhibition of forskolin-stimulated cAMP synthesis, CHO cells expressing human CB2R, mean, read-out: CB2 CAMP @ EC50 nM (mean)

T1 sequence (P34972 whole entry): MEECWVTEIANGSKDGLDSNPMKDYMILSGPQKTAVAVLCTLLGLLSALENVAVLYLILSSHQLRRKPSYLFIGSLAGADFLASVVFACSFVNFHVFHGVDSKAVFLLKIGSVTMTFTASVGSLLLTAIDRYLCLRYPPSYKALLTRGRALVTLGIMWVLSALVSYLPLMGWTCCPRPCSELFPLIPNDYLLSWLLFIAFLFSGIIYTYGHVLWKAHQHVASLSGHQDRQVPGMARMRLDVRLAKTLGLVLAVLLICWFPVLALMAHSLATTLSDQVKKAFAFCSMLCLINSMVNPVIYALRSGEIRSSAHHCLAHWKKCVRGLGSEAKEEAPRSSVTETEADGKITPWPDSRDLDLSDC

EC50 [1]	Structure (SMILES)	EC50
	CC(C)(C)c1cc(NC(=O)[C@@H]2CCCCN2C(=O)C2CCCCCC2)no1	8.2 nM
	CO[C@H]1CC[C@@H](C(=O)N2CCCC[C@H]2C(=O)Nc2cc(C(C)(C)C)on2)CC1	43 nM
	CC(C)(C)c1cc(NC(=O)C2CCCCN2C(=O)C2CCC(F)(F)CC2)no1 (stereo not shown) [1-(4,4-Difluoro-cyclohexanecarbonyl)-piperidine-2-carboxylic acid (5-tert-butyl-isoxazol-3-yl)-amide]	11 nM
	CC(C)(C)c1cc(NC(=O)C2CCCN(C(=O)C3CCC(F)(F)CC3)C2)no1 (stereo not shown) [1-(4,4-Difluoro-cyclohexanecarbonyl)-piperidine-3-carboxylic acid (5-tert-butyl-isoxazol-3-yl)-amide]	23 nM
	CC(C)(C)c1cc(NC(=O)C2CCCN(S(=O)(=O)c3ccc(Cl)cc3)C2)no1 (stereo not shown) [1-(4-Chloro-benzenesulfonyl)-piperidine-3-carboxylic acid (5-tert-butyl-isoxazol-3-yl)-amide]	12 nM
	CC(C)(C)c1cc(NC(=O)C2CCCN(Cc3ccc(Cl)cc3)C2)no1 (stereo not shown) [1-(4-Chloro-benzyl)-piperidine-3-carboxylic acid (5-tert-butyl-isoxazol-3-yl)-amide]	2.7 nM
	CC(C)(C)c1cc(NC(=O)C2CCCN(C(=O)c3ccc(C(F)(F)F)cc3)C2)no1 (stereo not shown) [1-(4-Trifluoromethyl-benzoyl)-piperidine-3-carboxylic acid (5-tert-butyl-isoxazol-3-yl)-amide]	16 nM
	CC(C)(C)c1cc(NC(=O)C2CCCN(c3ncc(C(F)(F)F)cc3Cl)C2)no1 (stereo not shown) [3′-Chloro-5′-trifluoromethyl-3,4,5,6-tetrahydro-2H-[1,2′]bipyridinyl-3-carboxylic acid (5-tert-butyl-isoxazol-3-yl)-amide]	113 nM
	CC(C)(C)c1cc(NC(=O)C2COCCN2S(=O)(=O)c2ccc(Cl)cc2)no1 (stereo not shown) [4-(4-Chloro-benzenesulfonyl)-morpholine-3-carboxylic acid (5-tert-butyl-isoxazol-3-yl)-amide]	34 nM
	CC(C)(C)c1cc(NC(=O)C2CN(C(=O)c3ccc(C(F)(F)F)cc3)CCO2)no1 (stereo not shown) [4-(4-Trifluoromethyl-benzoyl)-morpholine-2-carboxylic acid (5-tert-butyl-isoxazol-3-yl)-amide]	85 nM
	CC(C)(C)c1cc(NC(=O)[C@@H]2C[C@@H](O)CCN2c2ncc(C(F)(F)F)cc2Cl)no1 [(2S,4S)-3′-Chloro-4-hydroxy-5′-trifluoromethyl-3,4,5,6-tetrahydro-2H-[1,2′]bipyridinyl-2-carboxylic acid (5-tert-butyl-isoxazol-3-yl)-amide]	0.3 nM
	CC(C)(C)c1cc(NC(=O)[C@H]2CCCCN2C(=O)C2CCC(F)(F)CC2)no1 [(R)-1-(4,4-Difluoro-cyclohexanecarbonyl)-piperidine-2-carboxylic acid (5-tert-butyl-isoxazol-3-yl)-amide]	64 nM
	CC(C)(C)c1cc(NC(=O)[C@@H]2CCCN(C(=O)C3CCC(F)(F)CC3)C2)no1 [(R)-1-(4,4-Difluoro-cyclohexanecarbonyl)-piperidine-3-carboxylic acid (5-tert-butyl-isoxazol-3-yl)-amide]	42 nM
	CC(C)(C)c1cc(NC(=O)[C@@H]2CCCN(c3ncc(C(F)(F)F)cc3Cl)C2)no1 [(R)-3′-Chloro-5′-trifluoromethyl-3,4,5,6-tetrahydro-2H-[1,2′]bipyridinyl-3-carboxylic acid (5-tert-butyl-isoxazol-3-yl)-amide]	54 nM
	CC(C)(C)c1cc(NC(=O)[C@@H]2CCCCCN2C(=O)N2CCS(=O)(=O)CC2)no1 [(S)-1-(1,1-Dioxo-1λ^6-thiomorpholine-4-carbonyl)-azepane-2-carboxylic acid (5-tert-butyl-isoxazol-3-yl)-amide]	15 nM
	O=C(Nc1cc(C2CCCCC2)no1)[C@@H]1CCCCN1C(=O)N1CCS(=O)(=O)CC1 [(S)-1-(1,1-Dioxo-1λ^6-thiomorpholine-4-carbonyl)-piperidine-2-carboxylic acid (3-cyclohexyl-isoxazol-5-yl)-amide]	59 nM
105 nM	CCC(C)c1cc(NC(=O)[C@@H]2CCCCN2C(=O)N2CCS(=O)(=O)CC2)on1 (stereo partly drawn) [(S)-1-(1,1-Dioxo-1λ^6-thiomorpholine-4-carbonyl)-piperidine-2-carboxylic acid (3-sec-butyl-isoxazol-5-yl)-amide]	
59 nM	O=C(Nc1nc2c(F)cccc2s1)[C@@H]1CCCCN1C(=O)N1CCS(=O)(=O)CC1 [(S)-1-(1,1-Dioxo-1λ^6-thiomorpholine-4-carbonyl)-piperidine-2-carboxylic acid (4-fluoro-benzothiazol-2-yl)-amide]	
	O=C(Nc1nc2cc(Cl)ccc2[nH]1)[C@@H]1CCCCN1C(=O)N1CCS(=O)(=O)CC1 [(S)-1-(1,1-Dioxo-1λ^6-thiomorpholine-4-carbonyl)-piperidine-2-carboxylic acid (5-chloro-1H-benzimidazol-2-yl)-amide]	77 nM
5.2 nM	CCc1sc(NC(=O)[C@@H]2CCCCN2C(=O)N2CCS(=O)(=O)CC2)nc1-c1ccccc1 [(S)-1-(1,1-Dioxo-1λ^6-thiomorpholine-4-carbonyl)-piperidine-2-carboxylic acid (5-ethyl-4-phenyl-thiazol-2-yl)-amide]	
	O=C(Nc1nc2cc(F)ccc2s1)[C@@H]1CCCCN1C(=O)N1CCS(=O)(=O)CC1 [(S)-1-(1,1-Dioxo-1λ^6-thiomorpholine-4-carbonyl)-piperidine-2-carboxylic acid (5-fluoro-benzothiazol-2-yl)-amide]	56 nM
53 nM	CC(C)(C)c1nnc(NC(=O)[C@@H]2CCCCN2C(=O)N2CCS(=O)(=O)CC2)s1 [(S)-1-(1,1-Dioxo-1λ^6-thiomorpholine-4-carbonyl)-piperidine-2-carboxylic acid (5-tert-butyl-1,3,4-thiadiazol-2-yl)-amide]	
130 nM	O=C(NCCSCc1c(F)cccc1Cl)[C@@H]1CCCCN1C(=O)N1CCS(=O)(=O)CC1 [(S)-1-(1,1-Dioxo-1λ^6-thiomorpholine-4-carbonyl)-piperidine-2-carboxylic acid [2-(2-chloro-6-fluoro-benzylsulfanyl)-ethyl]-amide]	
22 nM	O=C(Nc1nc(-c2ccc(F)cc2)ns1)[C@@H]1CCCCN1C(=O)N1CCS(=O)(=O)CC1 [(S)-1-(1,1-Dioxo-1λ^6-thiomorpholine-4-carbonyl)-piperidine-2-carboxylic acid [3-(4-fluoro-phenyl)-[1,2,4]thiadiazol-5-yl]-amide]	
20 nM	COc1ccc(-c2nsc(NC(=O)[C@@H]3CCCCN3C(=O)N3CCS(=O)(=O)CC3)n2)cc1 [(S)-1-(1,1-Dioxo-1λ^6-thiomorpholine-4-carbonyl)-piperidine-2-carboxylic acid [3-(4-methoxy-phenyl)-[1,2,4]thiadiazol-5-yl]-amide]	
	O=C(Nc1nc(-c2ccc(F)cc2F)cs1)[C@@H]1CCCCN1C(=O)N1CCS(=O)(=O)CC1 [(S)-1-(1,1-Dioxo-1λ^6-thiomorpholine-4-carbonyl)-piperidine-2-carboxylic acid [4-(2,4-difluoro-phenyl)-thiazol-2-yl]-amide]	22 nM
26 nM	O=C(Nc1nc(-c2ccc(F)c(F)c2)cs1)[C@@H]1CCCCN1C(=O)N1CCS(=O)(=O)CC1 [(S)-1-(1,1-Dioxo-1λ^6-thiomorpholine-4-carbonyl)-piperidine-2-carboxylic acid [4-(3,4-difluoro-phenyl)-thiazol-2-yl]-amide]	
	O=C(Nc1nc(-c2ccc(Cl)cc2)cs1)[C@@H]1CCCCN1C(=O)N1CCS(=O)(=O)CC1 [(S)-1-(1,1-Dioxo-1λ^6-thiomorpholine-4-carbonyl)-piperidine-2-carboxylic acid [4-(4-chloro-phenyl)-thiazol-2-yl]-amide]	9.9 nM
	O=C(Nc1nc(-c2ccc(F)cc2)cs1)[C@@H]1CCCCN1C(=O)N1CCS(=O)(=O)CC1 [(S)-1-(1,1-Dioxo-1λ^6-thiomorpholine-4-carbonyl)-piperidine-2-carboxylic acid [4-(4-fluoro-phenyl)-thiazol-2-yl]-amide]	38 nM

Structure (SMILES)	EC50 [1]	EC50
CC(C)(C)c1cc(NC(=O)C2CCCN(C(=O)N3CCS(=O)(=O)CC3)C2)no1 (stereo not shown) [1-(1,1-Dioxo-1λ6-thiomorpholine-4-carbonyl)-piperidine-3-carboxylic acid (5-tert-butyl-isoxazol-3-yl)-amide]	215 nM	
CC(C)(C)c1cc(NC(=O)C2CCCCN2C(=O)c2ccc(C(F)(F)F)cc2)no1 (stereo not shown) [1-(4-Trifluoromethyl-benzoyl)-piperidine-2-carboxylic acid (5-tert-butyl-isoxazol-3-yl)-amide]	395 nM	
CC(C)(C)c1cc(NC(=O)C2CCCN(C(=O)C3CCOCC3)C2)no1 (stereo not shown) [1-(Tetrahydro-pyran-4-carbonyl)-piperidine-3-carboxylic acid (5-tert-butyl-isoxazol-3-yl)-amide]	205 nM	
CCn1nc(NC(=O)[C@@H]2CCCCN2C(=O)N2CCS(=O)(=O)CC2)nc1-c1ccccc1 [(S)-1-(1,1-Dioxo-1λ^6-thiomorpholine-4-carbonyl)-piperidine-2-carboxylic acid (1-ethyl-5-phenyl-1H-1,2,4-triazol-3-yl)-amide]	135 nM	
O=C(Nc1nc2cc(F)c(F)cc2s1)[C@@H]1CCCCN1C(=O)N1CCS(=O)(=O)CC1 [(S)-1-(1,1-Dioxo-1λ^6-thiomorpholine-4-carbonyl)-piperidine-2-carboxylic acid (5,6-difluoro-benzothiazol-2-yl)-amide]	448 nM	
